Laboratory results as given in PubChem BioAssay AID2060605 (Molecular Pharmacology Branch, DTP, NCI, 2025).
One block for each compound: values may come before it.

Tested on: 947758-054-R-J2-PDC spheroid growth, percent test/control
Test: Anticancer human tumor 947758-054-R-J2-PDC patient-derived colon adenocarcinoma cell line growth inhibition [CLK]
Settings: spheroids with HUVEC and MSC; for IC50: curve of first compound; for viability, T/C: stronger effect = lower value
How it was run: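 Patient-derived tumor cells grown as complex spheroids with HUVEC endothelial cells and mesenchymal stem cells, treated with drug combinations. Concentrations descend in half-log steps from near clinical Cmax, or from 10 microM if Cmax unknown.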

[1] = second compound 0.0316 µM, first compound 0.0316 µM
[2] = second compound 0.0316 µM, first compound 0.1 µM
[3] = second compound 0.0316 µM, first compound 0.316 µM
[4] = second compound 0.0316 µM, first compound 1 µM
[5] = second compound 0.0316 µM, first compound 3.16 µM
[6] = second compound 0.0316 µM, first compound 10 µM
[7] = second compound 0.1 µM, first compound 0.0316 µM
[8] = second compound 0.1 µM, first compound 0.1 µM
[9] = second compound 0.1 µM, first compound 0.316 µM
[10] = second compound 0.1 µM, first compound 1 µM
[11] = second compound 0.1 µM, first compound 3.16 µM
[12] = second compound 0.1 µM, first compound 10 µM
[13] = second compound 0.316 µM, first compound 0.0316 µM
[14] = second compound 0.316 µM, first compound 0.1 µM
[15] = second compound 0.316 µM, first compound 0.316 µM
[16] = second compound 0.316 µM, first compound 1 µM
[17] = second compound 0.316 µM, first compound 3.16 µM
[18] = second compound 0.316 µM, first compound 10 µM
[19] = second compound 1 µM, first compound 0.0316 µM
[20] = second compound 1 µM, first compound 0.1 µM
[21] = second compound 1 µM, first compound 0.316 µM
[22] = second compound 1 µM, first compound 1 µM
[23] = second compound 1 µM, first compound 3.16 µM
[24] = second compound 1 µM, first compound 10 µM
[25] = second compound 3.16 µM, first compound 0.0316 µM
[26] = second compound 3.16 µM, first compound 0.1 µM
[27] = second compound 3.16 µM, first compound 0.316 µM
[28] = second compound 3.16 µM, first compound 1 µM
[29] = second compound 3.16 µM, first compound 3.16 µM
[30] = second compound 3.16 µM, first compound 10 µM
[31] = second compound 10 µM, first compound 0.0316 µM
[32] = second compound 10 µM, first compound 0.1 µM
[33] = second compound 10 µM, first compound 0.316 µM
[34] = second compound 10 µM, first compound 1 µM
[35] = second compound 10 µM, first compound 3.16 µM
[36] = second compound 10 µM, first compound 10 µM
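Also: spheroids exposed to compounds for one week before readout.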
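For viability, T/C in this document: 100% = DMSO vehicle control wells.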

Structure (SMILES): CC(Nc1ccc2c(c1)OCCn1cc(N3C(=O)OCC3C(F)F)nc1-2)C(N)=O (centres undefined) + CN1CCN(c2cc(C(=O)Nc3cc4cc(-c5cnn(C)c5)ccc4cn3)ccn2)CC1
IC50 (second compound 0.0316 µM): > 10000 nM
IC50 (second compound 0.1 µM): 297 nM
IC50 (second compound 0.316 µM): < 31.6 nM
IC50 (second compound 1 µM): < 31.6 nM
IC50 (second compound 3.16 µM): < 31.6 nM
IC50 (second compound 10 µM): < 31.6 nM
viability, T/C [1]: 138%
viability, T/C [2]: 153%
viability, T/C [3]: 137%
viability, T/C [4]: 88.2%
viability, T/C [5]: 94.5%
viability, T/C [6]: 74.2%
viability, T/C [7]: 165%
viability, T/C [8]: 127%
viability, T/C [9]: 45.4%
viability, T/C [10]: 39.6%
viability, T/C [11]: 44.5%
viability, T/C [12]: 29.6%
viability, T/C [13]: 5.46%
viability, T/C [14]: 4.48%
viability, T/C [15]: 4.7%
viability, T/C [16]: 3.14%
viability, T/C [17]: 3.86%
viability, T/C [18]: 1.64%
viability, T/C [19]: 0.13%
viability, T/C [20]: 0.18%
viability, T/C [21]: 0.13%
viability, T/C [22]: 0.11%
viability, T/C [23]: 0.11%
viability, T/C [24]: 0.2%
viability, T/C [25]: 0.24%
viability, T/C [26]: 0.19%
viability, T/C [27]: 0.25%
viability, T/C [28]: 0.22%
viability, T/C [29]: 0.31%
viability, T/C [30]: 0.26%
viability, T/C [31]: 0.35%
viability, T/C [32]: 0.5%
viability, T/C [33]: 0.84%
viability, T/C [34]: 0.31%
viability, T/C [35]: 1.57%
viability, T/C [36]: 0.63%

IC50 (second compound 0.0316 µM): < 31.6 nM
IC50 (second compound 0.1 µM): < 31.6 nM
IC50 (second compound 0.316 µM): 32.6 nM
IC50 (second compound 1 µM): < 31.6 nM
IC50 (second compound 3.16 µM): < 31.6 nM
IC50 (second compound 10 µM): < 31.6 nM
Structure (SMILES): CCCS(=O)(=O)Nc1ccc(F)c(C(=O)c2c[nH]c3ncc(-c4ccc(Cl)cc4)cc23)c1F + CNC(=O)c1ccc(Nc2nc(OC3CCCC3)c3c(-c4ccc5nc(C)oc5c4)c[nH]c3n2)c(OC)c1
viability, T/C [1]: 39.4%
viability, T/C [2]: 44.1%
viability, T/C [3]: 31.6%
viability, T/C [4]: 53.5%
viability, T/C [5]: 47.7%
viability, T/C [6]: 31.5%
viability, T/C [7]: 45.5%
viability, T/C [8]: 37.9%
viability, T/C [9]: 29%
viability, T/C [10]: 28.2%
viability, T/C [11]: 24.6%
viability, T/C [12]: 17.2%
viability, T/C [13]: 50.4%
viability, T/C [14]: 33.6%
viability, T/C [15]: 18.8%
viability, T/C [16]: 22.5%
viability, T/C [17]: 23.9%
viability, T/C [18]: 11.2%
viability, T/C [19]: 37.6%
viability, T/C [20]: 25.5%
viability, T/C [21]: 16.9%
viability, T/C [22]: 13.6%
viability, T/C [23]: 14.4%
viability, T/C [24]: 4.09%
viability, T/C [25]: 30.2%
viability, T/C [26]: 20.7%
viability, T/C [27]: 15.7%
viability, T/C [28]: 13.1%
viability, T/C [29]: 10%
viability, T/C [30]: 4.82%
viability, T/C [31]: 24.2%
viability, T/C [32]: 20.9%
viability, T/C [33]: 14.4%
viability, T/C [34]: 13.6%
viability, T/C [35]: 9.07%
viability, T/C [36]: 4.26%
